One data set deals with ICAM-1 (CD54). Briefly: Endothelial adhesion molecule expression by ELISA, ICAM-1. It is filed as cell-based, human. As to conditions: HAAE-1, not complexed with LDL. The method, then: (§1) Endothelial cell surface adhesion molecule expression was measured by ELISA, using anti-human CD54 (ICAM-1), CD106 (VCAM-1) and CD62E (E-Selectin) antibodies (Leinco Technologies, Inc., St. Louis, Mo.). The ELISA method was modified from previously described procedures.
(§2) Cells were then incubated with antibodies to VCAM-1, E-selectin, or ICAM-1 diluted 1:400 in PBS containing 5% FCS at 37° C. for 30 min. Wells were washed two times with PBS, then incubated with horseradish peroxidase (HRP)-conjugated goat anti-mouse IgG (Southern Biotechnology Associates, Birmingham, Ala., USA) in PBS/5% FCS at 37° C. for 30 min. The wells were washed four times with PBS, then incubated with H2O2/3,3′,5,5′-tetramethyl-benzidine peroxidase substrate (Pierce Chemical, Rockford, Ill., USA) for 30 min in the dark. The reaction was stopped by adding 25 μl of 8 N H2SO4, and the plates read on a microplate reader, blanking on wells stained with only secondary antibody. Each assay was performed in triplicate and the data are reported as the mean±SEM as a percentage of the expression level of the vehicle. To study the effect of cholesterol ozonation product 5a concentration (5-50 μM) on E-selectin expression, the assay was performed in an identical fashion as described above, with each point being the mean±SEM of at least duplicate measurements.
On the technique in general: In an ELISA, binding on a coated surface is turned into a signal by an enzyme label.

The test system of data set [1] is WI-L2 human B-lymphocyte line. Nature of the data set: LDH release cytotoxicity assay, WI-L2. It is filed as cell-based. As to conditions: B-cell (WI-L2) cell line, concentration range of FIG. 6A (0-100 μM). Here is the method: (§3) Cytotoxicity assays. WI-L2 human B-lymphocyte line, HAAE-1 human abdominal aortic endothelial line, MH-S murine alveolar macrophage line, and J774A.1 murine tissue macrophage line were obtained from the ATCC. Human aortic endothelial cells (HAEC) and human vascular smooth muscle cells (VSMS) were obtained from Cambrex Bio Science. Jurkat E6-1T-lymphocytes were kindly provided by Dr. J. Kaye (The Scripps Research Institute). Cells were cultured in ATCC-recommended media with 10% fetal calf serum. Cells were incubated in a controlled atmosphere at 37° C., with 5 or 7% CO2. For lactate dehydrogenase (LDH) release assays, adherent cells were harvested either by addition of 0.05% trypsin/EDTA or by scraping. The cells obtained were seeded onto 96-well microtiter plates (25,000 cells/well) and allowed to recover for 24-48 h. […] Cytotoxicity was then determined by measuring lactate dehydrogenase (LDH) release from cells in culture. […] 100% Cytotoxicity was defined as the maximum amount of LDH released by dead cells as shown by trypan blue exclusion, or the highest amount of LDH detected upon lysis of cells by 0.9% Triton X-100. The IC50 values were determined by comparison of the raw duplicate data for concentration versus cytotoxicity (%) to non-linear regression analysis (Hill plot) using Graphpad v3.0 software for Macintosh. […]

Data set [2] deals with T-lymphocyte cell line (Jurkat E6.1). Nature of the data set: LDH release cytotoxicity assay, Jurkat. It is filed as cell-based. Particulars: concentration range of FIG. 6B (0-100 μM). Here is the method: as §3
(In general: LDH in the medium is a marker of cell lysis.)

A further data set relates to THP-1 monocytes. Nature of the data set: Monocyte morphology changes (differentiation into macrophages). It is filed as cell-based, human. As to conditions: 12.5 or 25 μM, up to 7 days. The method, then: THP-1 monocytes in suspension were plated in 8-well chambered slides. […] Media containing appropriate treatment compounds was replaced after 4 days. After 4 days treatment, morphologic changes of the adherent cells were assessed by phase-contrast microscopy and photographed using an Olympus Microfire digital camera.

A further data set deals with E-selectin (CD62E). Briefly: Endothelial adhesion molecule expression by ELISA, E-selectin. It is filed as cell-based, human. Particulars: HAAE-1, not complexed with LDL. The method, then:
as §1, §2

A further data set concerns VCAM-1 (CD106). Briefly: Endothelial adhesion molecule expression by ELISA, VCAM-1. As to conditions: HAAE-1, not complexed with LDL. It is filed as cell-based, human. The method, then: as §1, §2

In the case of `CC(C)CCC[C@@H](C)[C@H]1CC[C@H]2[C@@H]3CC=C4C[C@@H](O)CC[C@]4(C)[C@H]3CC[C@]12C` [compound 3, cholesterol, reference compound], the “integrin expression (ICAM-1)” value in the data set with ICAM-1 (CD54) is given as “no effects”. Moreover, the cytotoxicity result in data set [1] and in data set [2] was “No cytotoxicity” throughout. For the same compound, the “THP-1 monocyte differentiation into macrophages (adherence, morphology)” value with THP-1 monocytes is listed as “neither became adherent nor developed the aforementioned morphological changes”. The “selectin (E-selectin) expression” value in the data set on E-selectin (CD62E) was “no effects”. Moreover, in the data set on VCAM-1 (CD106), the “integrin expression (VCAM-1)” value is reported as “no effects”.

Values taken from patent publication US20100003711A1, “Methods to identify therapeutic agents” (THE SCRIPPS RESEARCH INSTITUTE, priority 2005, published 2010).
